From ChEMBL document CHEMBL3880411, “Multikinase inhibitors for use in the treatment of cancer” (2009)
pIC50: −log10 of the molar value. Active and inactive are the calls of the source. No cut-off for these calls is given here.

Tests used:
[1] = target: T1, Dual specificity mitogen-activated protein kinase kinase 1 (Homo sapiens, UniProt Q02750); test: Inhibition of human MEK1 assessed as remaining activity at 0.1 uM after 40 mins in presence of [gamma33P-ATP] by scintillation counting
[2] = Cytotoxicity against human SK-MEL-31 cells expressing B-RAF V600E mutant assessed as reduction in cell viability after 96 hrs by CellTiter-Glo luminescence assay or methylene blue assay; assay type: functional, cell-based
[3] = Cytotoxicity against human AU565 cells assessed as reduction in cell viability after 96 hrs by CellTiter-Glo luminescence assay or methylene blue assay; assay type: functional, cell-based; settings: AU565, 96 h
[4] = Cytotoxicity against human SW620 cells expressing K-ras G12V mutant assessed as reduction in cell viability after 96 hrs by CellTiter-Glo luminescence assay or methylene blue assay; assay type: functional, cell-based; settings: SW-620, 96 h
[5] = Cytotoxicity against human HCT116 cells expressing K-ras G13D mutant assessed as reduction in cell viability after 96 hrs by CellTiter-Glo luminescence assay or methylene blue assay; assay type: functional, cell-based; settings: HCT-116, 96 h
[6] = target: Tyrosine-protein kinase Lck (Homo sapiens) (UniProt P06239); test: Inhibition of human Lck assessed as remaining activity at 0.1 uM after 40 mins in presence of [gamma33P-ATP] by scintillation counting
[7] = target: Tyrosine-protein kinase ABL1 (Homo sapiens) (UniProt P00519); test: Inhibition of human Abl assessed as remaining activity at 0.1 uM after 40 mins in presence of [gamma33P-ATP] by scintillation counting
[8] = target: T1, Dual specificity mitogen-activated protein kinase kinase 1; test: Inhibition of human MEK1 assessed as remaining activity at 1 uM after 40 mins in presence of [gamma33P-ATP] by scintillation counting
[9] = Cytotoxicity against human DLD1 cells expressing K-ras G13D mutant assessed as reduction in cell viability after 96 hrs by CellTiter-Glo luminescence assay or methylene blue assay; assay type: functional, cell-based; settings: DLD-1, 96 h
[10] = Cytotoxicity against human MDA-MB-435 cells expressing B-RAF V600E mutant assessed as reduction in cell viability after 96 hrs by CellTiter-Glo luminescence assay or methylene blue assay; assay type: functional, cell-based; settings: MDA-MB-435, 96 h
[11] = tested on: LOX; test: (§1) Antitumor activity against human LOX cells expressing B-RAF V600E mutant xenografted in athymic mouse assessed as tumor regression at 10 to 40 mg/kg, iv administered for two weekly rounds of five injections daily with two-day rest period between the rounds measured at end of study; assay type: functional, organism-based
[12] = target: T1, Dual specificity mitogen-activated protein kinase kinase 1; test: Competitive inhibition of MEK1 (unknown origin) using ERK2 as substrate after 40 mins by ELISA
[13] = as §1, with “20” for “10”, “twice weekly from first day” for “at end”, “treatment” for “study”; assay type: functional
[14] = Cytotoxicity against human MIAPaCa2 cells expressing K-ras G12C mutant assessed as reduction in cell viability after 96 hrs by CellTiter-Glo luminescence assay or methylene blue assay; assay type: functional, cell-based; settings: MIA PaCa-2, 96 h
[15] = Cytotoxicity against human IMR90 cells assessed as reduction in cell viability after 96 hrs by CellTiter-Glo luminescence assay or methylene blue assay; assay type: functional, cell-based; settings: IMR-90, 96 h
[16] = Antiproliferative activity against human THP1 cells after 96 hrs by MTT assay; assay type: functional, cell-based; settings: THP-1, 96 h
[17] = target: Tyrosine-protein kinase Lck (Homo sapiens) (UniProt P06239); test: Inhibition of human Lck assessed as remaining activity at 1 uM after 40 mins in presence of [gamma33P-ATP] by scintillation counting
[18] = Cytotoxicity against human DU4475 cells expressing B-RAF V600E mutant assessed as reduction in cell viability after 96 hrs by CellTiter-Glo luminescence assay or methylene blue assay; assay type: functional, cell-based; settings: DU-4475, 96 h
[19] = Cytotoxicity against human MCF7 cells assessed as reduction in cell viability after 96 hrs by CellTiter-Glo luminescence assay or methylene blue assay; assay type: functional, cell-based; settings: MCF7, 96 h
[20] = as §1, with “10” for “10 to 40”, “twice weekly from first day” for “at end”, “treatment for 3 weeks” for “study”; assay type: functional
[21] = target: Tyrosine-protein kinase Yes (Homo sapiens) (UniProt P07947); test: Inhibition of human Yes assessed as remaining activity at 1 uM after 40 mins in presence of [gamma33P-ATP] by scintillation counting
[22] = Cytotoxicity against human LoVo cells expressing K-ras G13D mutant assessed as reduction in cell viability after 96 hrs by CellTiter-Glo luminescence assay or methylene blue assay; assay type: functional, cell-based
[23] = target: Nuclear factor NF-kappa-B complex (Homo sapiens) (UniProt Q00653+P19838+Q04206); test: Inhibition of NFkappaB (unknown origin); assay type: protein-complex assay
[24] = Antiproliferative activity against human HL60 cells after 96 hrs by MTT assay; assay type: functional, cell-based; settings: HL-60, 96 h
[25] = Cytotoxicity against human HT-29 cells expressing B-RAF V600E mutant assessed as reduction in cell viability after 96 hrs by CellTiter-Glo luminescence assay or methylene blue assay; assay type: functional, cell-based; settings: HT-29, 96 h
[26] = Antiproliferative activity against human RL cells after 96 hrs by MTT assay; assay type: functional, cell-based
[27] = Cytotoxicity against human PANC1 cells expressing K-ras G12D mutant assessed as reduction in cell viability after 96 hrs by CellTiter-Glo luminescence assay or methylene blue assay; assay type: functional, cell-based; settings: PANC-1, 96 h
[28] = target: Tyrosine-protein kinase Yes (Homo sapiens) (UniProt P07947); test: Inhibition of human Yes assessed as remaining activity at 0.1 uM after 40 mins in presence of [gamma33P-ATP] by scintillation counting
[29] = Cytotoxicity against human MDA-MB-231 cells expressing K-ras G13D mutant assessed as reduction in cell viability after 96 hrs by CellTiter-Glo luminescence assay or methylene blue assay; assay type: functional, cell-based; settings: MDA-MB-231, 96 h
[30] = Cytotoxicity against human BxPC3 cells assessed as reduction in cell viability after 96 hrs by CellTiter-Glo luminescence assay or methylene blue assay; assay type: functional, cell-based; settings: BXPC-3, 96 h
[31] = Cytotoxicity against human SK-MEL-2 cells expressing N-ras Q61R mutant assessed as reduction in cell viability after 96 hrs by CellTiter-Glo luminescence assay or methylene blue assay; assay type: functional, cell-based; settings: SK-MEL-2, 96 h
[32] = Antiproliferative activity against human U266 cells after 96 hrs by MTT assay; assay type: functional, cell-based; settings: U-266, 96 h
[33] = Antiproliferative activity against human RPMI8226 cells after 96 hrs by MTT assay; assay type: functional, cell-based; settings: RPMI-8226, 96 h
[34] = Cytotoxicity against human SK-MEL-3 cells expressing B-RAF V600E mutant assessed as reduction in cell viability after 96 hrs by CellTiter-Glo luminescence assay or methylene blue assay; assay type: functional, cell-based; settings: SK-MEL3, 96 h
[35] = Cytotoxicity against human SK-MEL-24 cells expressing B-RAF V600E mutant assessed as reduction in cell viability after 96 hrs by CellTiter-Glo luminescence assay or methylene blue assay; assay type: functional, cell-based; settings: SK-MEL-24, 96 h
[36] = target: Tyrosine-protein kinase ABL1 (Homo sapiens) (UniProt P00519); test: Inhibition of human Abl assessed as remaining activity at 1 uM after 40 mins in presence of [gamma33P-ATP] by scintillation counting
[37] = Cytotoxicity against human MES-SA/Dx5-Rx1 cells assessed as reduction in cell viability after 96 hrs by CellTiter-Glo luminescence assay or methylene blue assay; assay type: functional, cell-based
[38] = Cytotoxicity against human COLO205 cells expressing B-RAF V600E mutant assessed as reduction in cell viability after 96 hrs by CellTiter-Glo luminescence assay or methylene blue assay; assay type: functional, cell-based; settings: COLO 205, 96 h
[39] = Antiproliferative activity against human K562 cells after 96 hrs by MTT assay; assay type: functional, cell-based; settings: K562, 96 h
[40] = Antiproliferative activity against human NALM6 cells after 96 hrs by MTT assay; assay type: functional, cell-based; settings: NALM-6, 96 h
[41] = Cytotoxicity against human MES-SA cells assessed as reduction in cell viability after 96 hrs by CellTiter-Glo luminescence assay or methylene blue assay; assay type: functional, cell-based

T1 sequence (Q02750 whole entry): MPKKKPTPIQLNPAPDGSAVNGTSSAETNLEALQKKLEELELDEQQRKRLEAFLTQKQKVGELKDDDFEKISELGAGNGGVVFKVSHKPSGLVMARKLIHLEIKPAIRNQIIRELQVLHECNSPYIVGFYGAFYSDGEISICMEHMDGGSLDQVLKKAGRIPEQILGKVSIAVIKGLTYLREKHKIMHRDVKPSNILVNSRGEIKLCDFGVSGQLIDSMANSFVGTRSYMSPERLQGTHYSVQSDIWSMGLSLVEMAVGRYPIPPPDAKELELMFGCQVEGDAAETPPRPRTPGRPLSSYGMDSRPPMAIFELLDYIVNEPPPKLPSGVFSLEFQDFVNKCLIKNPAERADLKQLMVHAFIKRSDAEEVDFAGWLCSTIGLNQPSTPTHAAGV
Sequence of Tyrosine-protein kinase ABL1 (Homo sapiens) (P00519 whole entry): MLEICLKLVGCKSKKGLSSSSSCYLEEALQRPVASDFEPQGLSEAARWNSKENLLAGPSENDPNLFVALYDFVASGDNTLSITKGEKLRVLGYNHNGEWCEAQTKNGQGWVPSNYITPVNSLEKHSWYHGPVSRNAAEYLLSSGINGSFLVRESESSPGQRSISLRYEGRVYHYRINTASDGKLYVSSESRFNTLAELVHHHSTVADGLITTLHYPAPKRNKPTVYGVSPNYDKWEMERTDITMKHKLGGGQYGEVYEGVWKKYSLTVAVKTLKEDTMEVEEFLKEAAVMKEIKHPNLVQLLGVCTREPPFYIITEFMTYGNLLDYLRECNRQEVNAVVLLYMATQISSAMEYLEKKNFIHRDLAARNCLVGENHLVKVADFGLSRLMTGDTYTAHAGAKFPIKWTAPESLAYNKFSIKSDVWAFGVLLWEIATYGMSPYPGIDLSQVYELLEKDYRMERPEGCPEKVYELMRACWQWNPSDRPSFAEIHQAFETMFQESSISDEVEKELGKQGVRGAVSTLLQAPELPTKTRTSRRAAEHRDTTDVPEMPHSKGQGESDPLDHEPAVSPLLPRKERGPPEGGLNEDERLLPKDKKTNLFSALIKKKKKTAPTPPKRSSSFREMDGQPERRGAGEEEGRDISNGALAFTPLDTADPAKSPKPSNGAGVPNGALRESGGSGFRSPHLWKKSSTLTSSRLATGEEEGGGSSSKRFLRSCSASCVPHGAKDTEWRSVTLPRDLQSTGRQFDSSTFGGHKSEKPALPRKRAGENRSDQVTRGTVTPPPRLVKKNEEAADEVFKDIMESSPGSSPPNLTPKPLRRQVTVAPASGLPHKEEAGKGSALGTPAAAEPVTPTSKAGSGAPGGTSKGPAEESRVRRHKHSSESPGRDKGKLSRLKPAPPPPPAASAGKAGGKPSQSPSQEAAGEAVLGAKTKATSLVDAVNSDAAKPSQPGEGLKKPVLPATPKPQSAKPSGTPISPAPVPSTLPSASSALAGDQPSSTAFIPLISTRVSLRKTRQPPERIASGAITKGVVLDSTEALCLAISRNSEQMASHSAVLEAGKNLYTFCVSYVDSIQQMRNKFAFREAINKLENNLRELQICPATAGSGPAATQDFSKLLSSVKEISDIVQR
Sequence of Tyrosine-protein kinase Lck (Homo sapiens) (P06239 2-509 limits assumed): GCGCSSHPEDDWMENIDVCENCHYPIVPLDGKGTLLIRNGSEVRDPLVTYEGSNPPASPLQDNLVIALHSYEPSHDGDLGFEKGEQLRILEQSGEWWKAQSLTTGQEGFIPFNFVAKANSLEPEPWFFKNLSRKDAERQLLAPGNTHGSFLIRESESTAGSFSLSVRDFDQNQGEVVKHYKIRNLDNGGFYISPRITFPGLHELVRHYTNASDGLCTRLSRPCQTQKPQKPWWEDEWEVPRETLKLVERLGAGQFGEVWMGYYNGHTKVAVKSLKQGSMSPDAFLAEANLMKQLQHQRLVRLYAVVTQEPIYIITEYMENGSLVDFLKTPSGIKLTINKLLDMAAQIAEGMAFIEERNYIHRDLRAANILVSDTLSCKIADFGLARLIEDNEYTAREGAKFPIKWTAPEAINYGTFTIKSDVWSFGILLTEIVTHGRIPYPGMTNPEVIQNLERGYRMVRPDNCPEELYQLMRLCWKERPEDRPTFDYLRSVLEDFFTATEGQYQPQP
Sequence of Tyrosine-protein kinase Yes (Homo sapiens) (P07947 2-543 limits assumed): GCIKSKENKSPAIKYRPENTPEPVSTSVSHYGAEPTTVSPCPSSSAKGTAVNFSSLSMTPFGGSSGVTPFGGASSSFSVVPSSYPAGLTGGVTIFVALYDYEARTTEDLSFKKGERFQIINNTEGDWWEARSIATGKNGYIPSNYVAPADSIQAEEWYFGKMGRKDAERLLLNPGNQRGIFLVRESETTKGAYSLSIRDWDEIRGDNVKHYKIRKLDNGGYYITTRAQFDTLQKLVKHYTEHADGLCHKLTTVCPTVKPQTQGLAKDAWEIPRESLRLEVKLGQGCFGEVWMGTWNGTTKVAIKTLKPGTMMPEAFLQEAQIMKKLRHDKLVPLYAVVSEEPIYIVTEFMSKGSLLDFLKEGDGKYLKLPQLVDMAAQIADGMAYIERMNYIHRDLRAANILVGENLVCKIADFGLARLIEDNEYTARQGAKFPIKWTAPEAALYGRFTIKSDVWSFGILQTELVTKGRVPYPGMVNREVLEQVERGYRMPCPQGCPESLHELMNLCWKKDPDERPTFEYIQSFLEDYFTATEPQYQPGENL
Sequence of Nuclear factor NF-kappa-B complex (Homo sapiens) (P19838 whole entry, looked up): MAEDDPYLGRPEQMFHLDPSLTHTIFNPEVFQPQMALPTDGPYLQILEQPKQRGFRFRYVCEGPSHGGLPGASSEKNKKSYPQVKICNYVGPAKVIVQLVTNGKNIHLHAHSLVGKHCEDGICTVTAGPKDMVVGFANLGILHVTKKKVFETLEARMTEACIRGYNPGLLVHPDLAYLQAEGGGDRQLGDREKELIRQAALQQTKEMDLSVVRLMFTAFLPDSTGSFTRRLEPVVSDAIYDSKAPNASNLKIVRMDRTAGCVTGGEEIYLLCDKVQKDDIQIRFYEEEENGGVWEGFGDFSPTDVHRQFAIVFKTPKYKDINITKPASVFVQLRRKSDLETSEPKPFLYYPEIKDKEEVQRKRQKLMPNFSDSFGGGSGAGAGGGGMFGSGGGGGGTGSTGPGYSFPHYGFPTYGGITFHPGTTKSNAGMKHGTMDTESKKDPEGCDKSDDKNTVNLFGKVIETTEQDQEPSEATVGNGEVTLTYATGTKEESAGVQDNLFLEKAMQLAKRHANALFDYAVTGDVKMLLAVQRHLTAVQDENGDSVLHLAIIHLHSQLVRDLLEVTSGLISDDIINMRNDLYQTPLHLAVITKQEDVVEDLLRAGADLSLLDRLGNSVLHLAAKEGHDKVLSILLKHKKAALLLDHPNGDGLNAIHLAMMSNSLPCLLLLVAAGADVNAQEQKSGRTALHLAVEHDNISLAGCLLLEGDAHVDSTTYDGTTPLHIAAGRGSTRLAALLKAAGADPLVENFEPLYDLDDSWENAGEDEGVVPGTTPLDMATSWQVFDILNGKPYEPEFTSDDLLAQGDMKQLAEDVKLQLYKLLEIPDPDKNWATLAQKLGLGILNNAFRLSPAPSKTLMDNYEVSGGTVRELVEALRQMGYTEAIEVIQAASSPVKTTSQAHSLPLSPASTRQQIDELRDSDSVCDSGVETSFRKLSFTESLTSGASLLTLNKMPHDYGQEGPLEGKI
Sequence of Nuclear factor NF-kappa-B complex (Homo sapiens) (Q00653 whole entry, looked up): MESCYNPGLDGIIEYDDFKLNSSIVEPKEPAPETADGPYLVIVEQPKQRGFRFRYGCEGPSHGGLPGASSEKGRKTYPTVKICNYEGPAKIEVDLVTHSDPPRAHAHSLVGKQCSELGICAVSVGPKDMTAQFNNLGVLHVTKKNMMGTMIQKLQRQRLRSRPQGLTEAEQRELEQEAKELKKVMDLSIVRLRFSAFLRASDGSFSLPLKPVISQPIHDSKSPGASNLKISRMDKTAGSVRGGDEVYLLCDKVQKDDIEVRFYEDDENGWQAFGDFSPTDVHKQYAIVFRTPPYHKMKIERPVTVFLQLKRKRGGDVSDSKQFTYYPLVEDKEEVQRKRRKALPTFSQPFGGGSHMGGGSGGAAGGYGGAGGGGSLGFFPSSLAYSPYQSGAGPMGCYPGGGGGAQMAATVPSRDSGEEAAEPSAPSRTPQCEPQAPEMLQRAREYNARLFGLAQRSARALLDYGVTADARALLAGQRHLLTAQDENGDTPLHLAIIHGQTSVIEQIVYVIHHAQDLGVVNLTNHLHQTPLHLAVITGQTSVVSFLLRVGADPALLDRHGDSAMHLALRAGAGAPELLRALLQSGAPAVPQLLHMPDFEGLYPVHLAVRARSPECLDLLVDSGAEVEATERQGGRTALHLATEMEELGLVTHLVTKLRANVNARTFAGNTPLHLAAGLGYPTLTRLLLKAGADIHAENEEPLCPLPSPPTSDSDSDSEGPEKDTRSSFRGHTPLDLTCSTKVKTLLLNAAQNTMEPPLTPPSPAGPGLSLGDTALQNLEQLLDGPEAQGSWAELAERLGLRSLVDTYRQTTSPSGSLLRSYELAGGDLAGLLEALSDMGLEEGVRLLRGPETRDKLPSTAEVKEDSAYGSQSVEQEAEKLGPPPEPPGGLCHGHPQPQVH
Sequence of Nuclear factor NF-kappa-B complex (Homo sapiens) (Q04206 whole entry, looked up): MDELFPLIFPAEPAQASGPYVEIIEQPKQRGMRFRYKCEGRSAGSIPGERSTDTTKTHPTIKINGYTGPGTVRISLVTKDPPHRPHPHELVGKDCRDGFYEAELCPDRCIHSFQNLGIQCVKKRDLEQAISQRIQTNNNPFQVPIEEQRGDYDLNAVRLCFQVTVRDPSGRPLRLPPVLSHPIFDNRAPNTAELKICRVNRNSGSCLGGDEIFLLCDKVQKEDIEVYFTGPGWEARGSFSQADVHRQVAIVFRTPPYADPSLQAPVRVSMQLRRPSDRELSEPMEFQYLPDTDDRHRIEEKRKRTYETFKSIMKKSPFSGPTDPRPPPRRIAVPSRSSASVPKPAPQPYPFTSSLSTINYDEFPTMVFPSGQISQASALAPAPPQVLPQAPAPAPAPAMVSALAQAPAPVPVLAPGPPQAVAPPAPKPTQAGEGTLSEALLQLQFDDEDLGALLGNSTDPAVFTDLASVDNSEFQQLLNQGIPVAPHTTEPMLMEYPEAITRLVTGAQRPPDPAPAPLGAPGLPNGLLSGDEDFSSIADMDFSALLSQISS

## CNc1cc(O)c2c(c1)/C=C/C[C@H](O)[C@H](O)C(=O)/C=C\[C@@H](C)[C@H](C)OC2=O
[1]
  Activity: 30%
[2]
  pIC50: 6.68
[3]
  pIC50: < 5.00
[4]
  pIC50: 6.68
[5]
  pIC50: 6.59
[6]
  Activity: 38%
[7]
  Activity: 69%
[8]
  Activity: 4%
[9]
  pIC50: 6.33
[10]
  pIC50: 7.30
[11]
  Activity: Active
[12]
  inhibition: Active
[13]
  Activity: 100%
[14]
  pIC50: 6.24
[15]
  pIC50: < 5.00
[16]
  pIC50: 7.05
[17]
  Activity: 3%
[18]
  pIC50: 7.52
[19]
  pIC50: < 5.00
[20]
  Activity: 100%
[21]
  Activity: 7%
[22]
  pIC50: 7.05
[23]
  inhibition: Active
[24]
  pIC50: 7.30
[25]
  pIC50: 7.19
[26]
  pIC50: 5.79
[27]
  pIC50: < 5.00
[28]
  Activity: 46%
[29]
  pIC50: 6.92
[30]
  pIC50: 6.39
[31]
  pIC50: 6.95
[32]
  pIC50: 6.00
[33]
  pIC50: < 5.32
[34]
  pIC50: 7.72
[35]
  pIC50: 7.28
[36]
  Activity: 22%
[37]
  pIC50: 6.04
[38]
  pIC50: 7.57
[39]
  pIC50: 5.84
[40]
  pIC50: 6.19
[41]
  pIC50: 5.24
